Where a name gives a salt, the structure may show the parent alone.
Experiments:
μ-opioid receptors [1] = test: Evaluation of antagonist activity, guinea pig ileum test (responses to DAMGO)
Description: (§1) Agonist/antagonist activity at the μ-opioid receptor was determined using the well known guinea pig ileum test. Briefly, an a section of ileum section was placed in a stabilizing solution in a tensed state. Transducers were used to measure changes in tension upon electrical stimulation to the tissue before and after challenge with a potential agonist/antagonist Using a control, constriction inhibition, and constriction inhibition cancellation, may be measured.
(§2) The results are expressed as a percent of the control response to DAMGO (decrease in which contract amplitude)

μ-opioid receptors [2] = test: Evaluation of agonist activity, guinea pig ileum test; conditions: for Response to the compound + Naloxone (1.0E−07 M): compound 1.0E−04 M + naloxone 1.0E−07 M
Description: as §1, §2

[3] = 1.0E−08 M, control DAMGO 1.0E−07 M = 100

| SMILES | Responses to DAMGO (1.0E−07 M) in the presence of increasing concentrations of the compounds (μ-opioid receptors [1]; 1.0E−04 M) | Responses to DAMGO (1.0E−07 M) in the presence of increasing concentrations of the compounds (μ-opioid receptors [1]; 1.0E−05 M) | Responses to DAMGO (1.0E−07 M) in the presence of increasing concentrations of the compounds (μ-opioid receptors [1]; 1.0E−06 M) | Responses to DAMGO (1.0E−07 M) in the presence of increasing concentrations of the compounds (μ-opioid receptors [1]; 1.0E−07 M) | Responses to DAMGO (1.0E−07 M) in the presence of increasing concentrations of the compounds (μ-opioid receptors [1]; 1.0E−08 M) | Responses to DAMGO (1.0E−07 M) in the presence of increasing concentrations of the compounds (μ-opioid receptors [1]; 3.0E−05 M) | Responses to DAMGO (1.0E−07 M) in the presence of increasing concentrations of the compounds (μ-opioid receptors [1]; 3.0E−06 M) | Responses to DAMGO (1.0E−07 M) in the presence of increasing concentrations of the compounds (μ-opioid receptors [1]; 3.0E−07 M) | Responses to DAMGO (1.0E−07 M) in the presence of increasing concentrations of the compounds (μ-opioid receptors [1]; 3.0E−08 M) | Responses to increasing concentrations of the compounds (μ-opioid receptors [2]; 1.0E−04 M) | Responses to increasing concentrations of the compounds (μ-opioid receptors [2]; 1.0E−05 M) | Responses to increasing concentrations of the compounds (μ-opioid receptors [2]; 1.0E−06 M) | Responses to increasing concentrations of the compounds (μ-opioid receptors [2]; 1.0E−07 M) | Responses to increasing concentrations of the compounds (μ-opioid receptors [2]; [3]) | Responses to increasing concentrations of the compounds (μ-opioid receptors [2]; 3.0E−05 M) | Responses to increasing concentrations of the compounds (μ-opioid receptors [2]; 3.0E−06 M) | Responses to increasing concentrations of the compounds (μ-opioid receptors [2]; 3.0E−07 M) | Responses to increasing concentrations of the compounds (μ-opioid receptors [2]; 3.0E−08 M) | Response to the compound + Naloxone (1.0E−07 M) (μ-opioid receptors [2]) | other results |
| --- | --- | --- | --- | --- | --- | --- | --- | --- | --- | --- | --- | --- | --- | --- | --- | --- | --- | --- | --- | --- |
| C[N@+]1(CC2CCCC2)CC[C@]23c4c5ccc(O)c4O[C@H]2C(=O)CC[C@@]3(O)[C@H]1C5 [(R)-CPTM, (R)-17-cyclopentylmethyl-4,5α-epoxy-3,14-dihydroxy-17-methyl-6-oxomorphinanium iodide] | 40% of the control response to DAMGO | 28% of the control response to DAMGO | 21% of the control response to DAMGO | 84% of the control response to DAMGO | 100% of the control response to DAMGO | 34% of the control response to DAMGO | −1% of the control response to DAMGO | 63% of the control response to DAMGO | 96% of the control response to DAMGO | 18% of the control response to DAMGO | 0% of the control response to DAMGO | 0% of the control response to DAMGO | 0% of the control response to DAMGO | 0% of the control response to DAMGO | 12% of the control response to DAMGO | 0% of the control response to DAMGO | 0% of the control response to DAMGO | 0% of the control response to DAMGO | 18% of the control response to DAMGO | – |
| CCCOC1C[C@@H](O)[C@@H]2Oc3c(O)ccc4c3[C@@]23CC[N+](C)(CC2CC2)[C@H](C4)[C@]13O (stereo partly drawn) [(R)-CPM, trifluoroacetate] | 22% of the control response to DAMGO | 5% of the control response to DAMGO | 32% of the control response to DAMGO | 90% of the control response to DAMGO | 100% of the control response to DAMGO | 12% of the control response to DAMGO | 11% of the control response to DAMGO | 69% of the control response to DAMGO | 100% of the control response to DAMGO | 22% of the control response to DAMGO | 0% of the control response to DAMGO | 0% of the control response to DAMGO | 0% of the control response to DAMGO | 0% of the control response to DAMGO | 5% of the control response to DAMGO | 0% of the control response to DAMGO | 0% of the control response to DAMGO | 0% of the control response to DAMGO | 17% of the control response to DAMGO | – |
| C[C@@H](NC(=O)[C@@H](N)Cc1ccc(O)cc1)C(=O)NCC(=O)N(C)[C@@H](Cc1ccccc1)C(=O)NCCO [DAMGO, reference compound] | – | – | – | – | – | – | – | – | – | – | – | 103% of the control response to DAMGO | 96% of the control response to DAMGO | 57% of the control response to DAMGO | – | – | – | – | – | Responses to increasing concentrations of the compounds (μ-opioid receptors [2]; 1.0E−09 M): 9% of the control response to DAMGO; Response to DAMGO + Naloxone (1.0E−07 M) (μ-opioid receptors [2]; DAMGO after the highest concentration, + naloxone 1.0E−07 M): 4% of the control response to DAMGO |
